What was measured:
oval-leafed pondweed [1] = test: Test Example 1: herbicidal activity, application before weed generation under submerged conditions (Table 16, symbol C); type: in vivo, oval-leafed pondweed (Monochoria vaginalis); conditions: 320 g/ha applied herbicide
Outline: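 Emulsion formulation, water-diluted to set dose, was put onto the flooded surface (4 cm depth, alluvial soil) the same day weeds were sown and 2.5-leaf rice transplanted. After 3 weeks at 25-30 °C under glass, each species was rated 0 (≤5% kill) to 5 (≥90% kill).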

late watergrass = test: Test Example 2: herbicidal activity, application during weed generation under submerged conditions (Table 17, symbol A); type: in vivo, late watergrass (Echinochloa oryzicola); conditions: AAH 320 g/ha; application during weed generation, submerged conditions
Outline: (§1)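 Herbicide emulsion, diluted with water to the chosen amount, is applied onto 4 cm floodwater over alluvial soil where the weeds were co-sown and raised at 25–30° C. Application timing: 1–2 leaves. Assessment: three weeks afterwards.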

oval-leafed pondweed [2] = test: Test Example 2: herbicidal activity, application during weed generation under submerged conditions (Table 17, symbol C); type: in vivo, oval-leafed pondweed (Monochoria vaginalis); conditions: AAH 320 g/ha; application during weed generation, submerged conditions
Outline: as §1

rice flat sedge = test: Test Example 3: herbicidal effect by foliage application, Wagner pot (Table 18, symbol E); type: in vivo, rice flat sedge (Cyperus iria); conditions: amount of applied herbicide 320 g/ha
Outline: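 Plants were sown in alluvial soil held under 0.1–0.5 cm standing water and grown 14 days in a greenhouse at 25–30 °C. An emulsifiable formulation, water-diluted to the set dose, was then sprayed onto the foliage, and effects were scored three weeks later using previously defined criteria.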

green foxtail [3] = test: Test Example 4: herbicidal effect by soil treatment (Table 19, symbol G); type: in vivo, green foxtail (Setaria viridis); conditions: amount of applied herbicide 320 g/ha
Outline: (§2)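 Pre-emergence style soil spray: seeds under ~1.5 cm sterilized diluvial soil received a uniform coat of emulsion diluted to the predetermined herbicide amount. Greenhouse 25–30° C; readout at week three on previously defined criteria.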

wild oat [4] = test: Test Example 4: herbicidal effect by soil treatment (Table 19, symbol I); type: in vivo, wild oat (Avena fatua); conditions: amount of applied herbicide 320 g/ha
Outline: as §2

blackgrass = test: Test Example 4: herbicidal effect by soil treatment (Table 19, symbol J); type: in vivo, blackgrass (Alopecurus myosuroides); conditions: amount of applied herbicide 320 g/ha
Outline: as §2

Italian ryegrass [5] = test: Test Example 4: herbicidal effect by soil treatment (Table 19, symbol K); type: in vivo, Italian ryegrass (Lolium multiflorum); conditions: amount of applied herbicide 320 g/ha
Outline: as §2

velvetleaf [6] = test: Test Example 4: herbicidal effect by soil treatment (Table 19, symbol M); type: in vivo, velvetleaf (Abutilon theophrasti); conditions: amount of applied herbicide 320 g/ha
Outline: as §2

redroot pigweed = test: Test Example 4: herbicidal effect by soil treatment (Table 19, symbol N); type: in vivo, redroot pigweed (Amaranthus retroflexus); conditions: amount of applied herbicide 320 g/ha
Outline: as §2

chickweed = test: Test Example 4: herbicidal effect by soil treatment (Table 19, symbol P); type: in vivo, common chickweed (Stellaria media); conditions: amount of applied herbicide 320 g/ha
Outline: as §2

southern crabgrass = test: Test Example 5: herbicidal effect by foliage application, plastic box (Table 20, symbol F); type: in vivo, southern crabgrass (Digitaria ciliaris); conditions: foliage application, 320 g/ha, evaluated three weeks after application
Outline: (§3)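 Plants were sown into sterilized diluvial soil under about 1.5 cm cover and kept in a greenhouse at 25° C. to 30° C. Fourteen days on, foliage received an even spray of the diluted emulsion. Herbicidal or crop effect was judged three weeks afterwards.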

green foxtail [7] = test: Test Example 5: herbicidal effect by foliage application, plastic box (Table 20, symbol G); type: in vivo, green foxtail (Setaria viridis); conditions: foliage application, 320 g/ha, evaluated three weeks after application
Outline: as §3

wild oat [8] = test: Test Example 5: herbicidal effect by foliage application, plastic box (Table 20, symbol I); type: in vivo, wild oat (Avena fatua); conditions: foliage application, 320 g/ha, evaluated three weeks after application
Outline: as §3

Italian ryegrass [9] = test: Test Example 5: herbicidal effect by foliage application, plastic box (Table 20, symbol K); type: in vivo, Italian ryegrass (Lolium multiflorum); conditions: foliage application, 320 g/ha, evaluated three weeks after application
Outline: as §3

velvetleaf [10] = test: Test Example 5: herbicidal effect by foliage application, plastic box (Table 20, symbol M); type: in vivo, velvetleaf (Abutilon theophrasti); conditions: foliage application, 320 g/ha, evaluated three weeks after application
Outline: as §3

persian speedwell = test: Test Example 5: herbicidal effect by foliage application, plastic box (Table 20, symbol R); type: in vivo, Persian speedwell (Veronica persica); conditions: foliage application, 320 g/ha, evaluated three weeks after application
Outline: as §3

Cc1nn(C)c(=O)c(-c2c(-c3ccccc3F)sc3ccc(F)cc23)c1O [2-199]
Herbicidal effect on C: oval-leafed pondweed (grade 0-5) (oval-leafed pondweed [1]): 2 (Herbicidal rate of 20% or more and less than 40%)
herbicidal effect rating, A: late watergrass (late watergrass): 0 (Herbicidal rate of 5% or less (almost no effect))
herbicidal effect rating, C: oval-leafed pondweed (oval-leafed pondweed [2]): 0 (Herbicidal rate of 5% or less (almost no effect))
herbicidal effect on E: rice flat sedge (rice flat sedge): 5 (Herbicidal rate of 90% or more (almost completely withered))
G: green foxtail, herbicidal effect rating (green foxtail [3]): 4 (Herbicidal rate of 70% or more and less than 90%)
I: wild oat, herbicidal effect rating (wild oat [4]): 0 (Herbicidal rate of 5% or less (almost no effect))
J: blackgrass, herbicidal effect rating (blackgrass): 0 (Herbicidal rate of 5% or less (almost no effect))
K: Italian ryegrass, herbicidal effect rating (Italian ryegrass [5]): 3 (Herbicidal rate of 40% or more and less than 70%)
M: velvetleaf, herbicidal effect rating (velvetleaf [6]): 1 (Herbicidal rate of 5% or more and less than 20%)
N: redroot pigweed, herbicidal effect rating (redroot pigweed): 4 (Herbicidal rate of 70% or more and less than 90%)
P: chickweed, herbicidal effect rating (chickweed): 2 (Herbicidal rate of 20% or more and less than 40%)
herbicidal effect on F: southern crabgrass (criteria 0-5) (southern crabgrass): 4 (Herbicidal rate of 70% or more and less than 90%)
herbicidal effect on G: green foxtail (criteria 0-5) (green foxtail [7]): 5 (Herbicidal rate of 90% or more (almost completely withered))
herbicidal effect on I: wild oat (criteria 0-5) (wild oat [8]): 1 (Herbicidal rate of 5% or more and less than 20%)
herbicidal effect on K: Italian ryegrass (criteria 0-5) (Italian ryegrass [9]): 4 (Herbicidal rate of 70% or more and less than 90%)
herbicidal effect on M: velvetleaf (criteria 0-5) (velvetleaf [10]): 5 (Herbicidal rate of 90% or more (almost completely withered))
herbicidal effect on R: persian speedwell (criteria 0-5) (persian speedwell): 5 (Herbicidal rate of 90% or more (almost completely withered))

Cc1nn(C)c(=O)c(-c2c(-c3ccc(Br)cc3)sc3ccc(F)cc23)c1O [2-205]
Herbicidal effect on C: oval-leafed pondweed (grade 0-5) (oval-leafed pondweed [1]): 1 (Herbicidal rate of 5% or more and less than 20%)
herbicidal effect rating, A: late watergrass (late watergrass): 2 (Herbicidal rate of 20% or more and less than 40%)
herbicidal effect rating, C: oval-leafed pondweed (oval-leafed pondweed [2]): 2 (Herbicidal rate of 20% or more and less than 40%)
herbicidal effect on E: rice flat sedge (rice flat sedge): 5 (Herbicidal rate of 90% or more (almost completely withered))
G: green foxtail, herbicidal effect rating (green foxtail [3]): 5 (Herbicidal rate of 90% or more (almost completely withered))
I: wild oat, herbicidal effect rating (wild oat [4]): 1 (Herbicidal rate of 5% or more and less than 20%)
J: blackgrass, herbicidal effect rating (blackgrass): 0 (Herbicidal rate of 5% or less (almost no effect))
K: Italian ryegrass, herbicidal effect rating (Italian ryegrass [5]): 5 (Herbicidal rate of 90% or more (almost completely withered))
M: velvetleaf, herbicidal effect rating (velvetleaf [6]): 2 (Herbicidal rate of 20% or more and less than 40%)
N: redroot pigweed, herbicidal effect rating (redroot pigweed): 5 (Herbicidal rate of 90% or more (almost completely withered))
P: chickweed, herbicidal effect rating (chickweed): 3 (Herbicidal rate of 40% or more and less than 70%)
herbicidal effect on F: southern crabgrass (criteria 0-5) (southern crabgrass): 5 (Herbicidal rate of 90% or more (almost completely withered))
herbicidal effect on G: green foxtail (criteria 0-5) (green foxtail [7]): 5 (Herbicidal rate of 90% or more (almost completely withered))
herbicidal effect on I: wild oat (criteria 0-5) (wild oat [8]): 4 (Herbicidal rate of 70% or more and less than 90%)
herbicidal effect on K: Italian ryegrass (criteria 0-5) (Italian ryegrass [9]): 5 (Herbicidal rate of 90% or more (almost completely withered))
herbicidal effect on M: velvetleaf (criteria 0-5) (velvetleaf [10]): 5 (Herbicidal rate of 90% or more (almost completely withered))
herbicidal effect on R: persian speedwell (criteria 0-5) (persian speedwell): 5 (Herbicidal rate of 90% or more (almost completely withered))

CCCC(=O)Oc1c(C)nn(C)c(=O)c1-c1c(-c2ccc(Br)cc2)sc2ccc(F)cc12 [2-206]
Herbicidal effect on C: oval-leafed pondweed (grade 0-5) (oval-leafed pondweed [1]): 4 (Herbicidal rate of 70% or more and less than 90%)
herbicidal effect rating, A: late watergrass (late watergrass): 4 (Herbicidal rate of 70% or more and less than 90%)
herbicidal effect rating, C: oval-leafed pondweed (oval-leafed pondweed [2]): 4 (Herbicidal rate of 70% or more and less than 90%)
herbicidal effect on E: rice flat sedge (rice flat sedge): 5 (Herbicidal rate of 90% or more (almost completely withered))
G: green foxtail, herbicidal effect rating (green foxtail [3]): 3 (Herbicidal rate of 40% or more and less than 70%)
I: wild oat, herbicidal effect rating (wild oat [4]): 0 (Herbicidal rate of 5% or less (almost no effect))
J: blackgrass, herbicidal effect rating (blackgrass): 0 (Herbicidal rate of 5% or less (almost no effect))
K: Italian ryegrass, herbicidal effect rating (Italian ryegrass [5]): 5 (Herbicidal rate of 90% or more (almost completely withered))
M: velvetleaf, herbicidal effect rating (velvetleaf [6]): 2 (Herbicidal rate of 20% or more and less than 40%)
N: redroot pigweed, herbicidal effect rating (redroot pigweed): 5 (Herbicidal rate of 90% or more (almost completely withered))
P: chickweed, herbicidal effect rating (chickweed): 4 (Herbicidal rate of 70% or more and less than 90%)
herbicidal effect on F: southern crabgrass (criteria 0-5) (southern crabgrass): 3 (Herbicidal rate of 40% or more and less than 70%)
herbicidal effect on G: green foxtail (criteria 0-5) (green foxtail [7]): 3 (Herbicidal rate of 40% or more and less than 70%)
herbicidal effect on I: wild oat (criteria 0-5) (wild oat [8]): 4 (Herbicidal rate of 70% or more and less than 90%)
herbicidal effect on K: Italian ryegrass (criteria 0-5) (Italian ryegrass [9]): 5 (Herbicidal rate of 90% or more (almost completely withered))
herbicidal effect on M: velvetleaf (criteria 0-5) (velvetleaf [10]): 5 (Herbicidal rate of 90% or more (almost completely withered))
herbicidal effect on R: persian speedwell (criteria 0-5) (persian speedwell): 5 (Herbicidal rate of 90% or more (almost completely withered))

CCc1ccc(-c2sc3ccc(F)cc3c2-c2c(O)c(C)nn(C)c2=O)cc1 [2-207]
Herbicidal effect on C: oval-leafed pondweed (grade 0-5) (oval-leafed pondweed [1]): 3 (Herbicidal rate of 40% or more and less than 70%)
herbicidal effect rating, A: late watergrass (late watergrass): 3 (Herbicidal rate of 40% or more and less than 70%)
herbicidal effect rating, C: oval-leafed pondweed (oval-leafed pondweed [2]): 1 (Herbicidal rate of 5% or more and less than 20%)
herbicidal effect on E: rice flat sedge (rice flat sedge): 5 (Herbicidal rate of 90% or more (almost completely withered))
G: green foxtail, herbicidal effect rating (green foxtail [3]): 0 (Herbicidal rate of 5% or less (almost no effect))
I: wild oat, herbicidal effect rating (wild oat [4]): 0 (Herbicidal rate of 5% or less (almost no effect))
J: blackgrass, herbicidal effect rating (blackgrass): 0 (Herbicidal rate of 5% or less (almost no effect))
K: Italian ryegrass, herbicidal effect rating (Italian ryegrass [5]): 4 (Herbicidal rate of 70% or more and less than 90%)
M: velvetleaf, herbicidal effect rating (velvetleaf [6]): 5 (Herbicidal rate of 90% or more (almost completely withered))
N: redroot pigweed, herbicidal effect rating (redroot pigweed): 5 (Herbicidal rate of 90% or more (almost completely withered))
P: chickweed, herbicidal effect rating (chickweed): 3 (Herbicidal rate of 40% or more and less than 70%)
herbicidal effect on F: southern crabgrass (criteria 0-5) (southern crabgrass): 4 (Herbicidal rate of 70% or more and less than 90%)
herbicidal effect on G: green foxtail (criteria 0-5) (green foxtail [7]): 4 (Herbicidal rate of 70% or more and less than 90%)
herbicidal effect on I: wild oat (criteria 0-5) (wild oat [8]): 3 (Herbicidal rate of 40% or more and less than 70%)
herbicidal effect on K: Italian ryegrass (criteria 0-5) (Italian ryegrass [9]): 4 (Herbicidal rate of 70% or more and less than 90%)
herbicidal effect on M: velvetleaf (criteria 0-5) (velvetleaf [10]): 5 (Herbicidal rate of 90% or more (almost completely withered))
herbicidal effect on R: persian speedwell (criteria 0-5) (persian speedwell): 5 (Herbicidal rate of 90% or more (almost completely withered))

Reference: patent US20230085307A1, “PYRIDAZINONE COMPOUND AND HERBICIDE” (NISSAN CHEMICAL CORPORATION, priority 2019, published 2023)
